Results on 13 compounds are retold here after PMC9911797, “Novel TLR7/8 agonists promote activation of HIV-1 latent reservoirs and human T and NK cells” (Frontiers in Microbiology, 2023).

The target of series [1] is T1, hTLR7 (Homo sapiens, UniProt Q9NYK1).
T1 construct: host or cells: HEK-Blue hTLR7 (HEK293-derived)
T1 sequence (Q9NYK1 27-1049): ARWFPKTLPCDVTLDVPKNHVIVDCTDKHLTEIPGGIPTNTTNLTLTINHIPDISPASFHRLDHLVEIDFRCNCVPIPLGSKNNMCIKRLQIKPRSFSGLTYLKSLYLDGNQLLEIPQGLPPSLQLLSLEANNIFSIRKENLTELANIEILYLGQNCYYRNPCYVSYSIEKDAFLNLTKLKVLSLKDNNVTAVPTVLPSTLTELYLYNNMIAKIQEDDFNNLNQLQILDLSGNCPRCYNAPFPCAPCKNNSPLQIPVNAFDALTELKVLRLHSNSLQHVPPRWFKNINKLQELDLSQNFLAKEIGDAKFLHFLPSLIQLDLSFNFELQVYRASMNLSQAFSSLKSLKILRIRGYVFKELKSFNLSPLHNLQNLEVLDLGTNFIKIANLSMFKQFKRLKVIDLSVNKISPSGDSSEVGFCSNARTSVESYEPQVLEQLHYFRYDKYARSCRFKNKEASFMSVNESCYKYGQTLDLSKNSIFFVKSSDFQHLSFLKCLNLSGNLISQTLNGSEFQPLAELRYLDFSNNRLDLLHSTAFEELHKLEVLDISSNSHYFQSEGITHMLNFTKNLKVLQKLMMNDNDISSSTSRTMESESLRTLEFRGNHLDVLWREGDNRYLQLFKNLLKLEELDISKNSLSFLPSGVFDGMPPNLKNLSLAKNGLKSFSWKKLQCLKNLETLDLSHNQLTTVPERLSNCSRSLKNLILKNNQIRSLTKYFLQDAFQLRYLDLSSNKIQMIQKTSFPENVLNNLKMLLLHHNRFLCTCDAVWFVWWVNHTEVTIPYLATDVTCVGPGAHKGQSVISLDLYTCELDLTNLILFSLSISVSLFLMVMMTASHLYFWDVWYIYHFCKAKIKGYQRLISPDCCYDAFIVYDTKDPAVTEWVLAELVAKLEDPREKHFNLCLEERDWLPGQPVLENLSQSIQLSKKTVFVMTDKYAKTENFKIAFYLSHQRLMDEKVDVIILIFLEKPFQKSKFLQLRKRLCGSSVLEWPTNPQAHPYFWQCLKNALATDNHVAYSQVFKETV
Briefly: HEK-Blue hTLR7 SEAP reporter assay. It is filed as cell-based. Particulars: HEK-Blue hTLR7 cells, SEAP in supernatant. Here is the method:
(§1) Starting with the lead compound, 76 pyrido [3,2-d] pyrimidine derivatives were synthesized and optimized through structural modification from the deep hydrophobic region to the solvent-exposed region. Seventy-six compounds were evaluated for their in vitro activity using HEK-Blue hTLR7 or hTLR8 reporter cells, stably expressing the human TLR7 or TLR8 and an NF-κB/AP1-inducible SEAP (secreted embryonic alkaline phosphatase reporter gene).
(§2) Add 20 μl various concentrations of TLR agonists (10 dilutions) and in a 96-well plate. Then HEK-Blue hTLR7 and hTLR8 cells were suspended to 4 × 10^5 cells/ml in HEK-Blue Detection (InvivoGen) medium and added 180 μl per well. The plates were incubated at 37°C in 5% CO2 for 12 ~ 16 h. Stimulation with a hTLR7or hTLR8 ligand activates NF-κB to induce the production of secreted embryonic alkaline phosphatase (SEAP) in the culture supernatant. SEAP could be measured at OD630nm on an ELISA plate reader.

For series [2], the target named is T2, hTLR8 (Homo sapiens, UniProt Q9NR97).
T2 construct: host or cells: HEK-Blue hTLR8 (HEK293-derived)
T2 sequence (Q9NR97 27-1041): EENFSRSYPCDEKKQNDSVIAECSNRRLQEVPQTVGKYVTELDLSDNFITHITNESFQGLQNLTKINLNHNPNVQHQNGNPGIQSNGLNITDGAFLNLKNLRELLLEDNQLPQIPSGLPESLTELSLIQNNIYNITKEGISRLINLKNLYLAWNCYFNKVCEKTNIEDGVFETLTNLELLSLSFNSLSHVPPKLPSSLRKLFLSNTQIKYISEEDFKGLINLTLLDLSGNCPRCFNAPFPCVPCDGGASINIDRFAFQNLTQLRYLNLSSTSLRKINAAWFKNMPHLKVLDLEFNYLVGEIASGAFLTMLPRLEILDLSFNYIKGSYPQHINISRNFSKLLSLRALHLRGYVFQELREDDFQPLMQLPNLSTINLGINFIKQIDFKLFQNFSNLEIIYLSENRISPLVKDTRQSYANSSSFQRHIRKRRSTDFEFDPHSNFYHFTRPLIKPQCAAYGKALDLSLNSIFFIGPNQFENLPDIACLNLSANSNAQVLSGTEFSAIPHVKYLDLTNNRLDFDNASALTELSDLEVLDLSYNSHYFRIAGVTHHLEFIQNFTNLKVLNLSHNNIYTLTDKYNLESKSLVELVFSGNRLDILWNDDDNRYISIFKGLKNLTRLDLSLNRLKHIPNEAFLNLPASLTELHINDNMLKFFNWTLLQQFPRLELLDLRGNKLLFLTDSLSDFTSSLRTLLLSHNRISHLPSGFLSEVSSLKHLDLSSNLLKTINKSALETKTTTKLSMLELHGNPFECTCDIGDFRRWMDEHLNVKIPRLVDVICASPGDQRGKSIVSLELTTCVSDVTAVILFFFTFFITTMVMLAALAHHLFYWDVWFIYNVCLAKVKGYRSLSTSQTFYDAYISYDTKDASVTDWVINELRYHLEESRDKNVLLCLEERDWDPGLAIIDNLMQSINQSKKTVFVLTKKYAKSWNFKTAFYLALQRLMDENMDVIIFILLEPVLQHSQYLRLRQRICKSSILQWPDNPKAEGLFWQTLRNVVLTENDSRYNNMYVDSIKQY
Briefly: HEK-Blue hTLR8 SEAP reporter assay. Type of series: cell-based. Conditions: HEK-Blue hTLR8 cells, SEAP in supernatant. Here is the method: as §1, §2
(In general: A reporter such as luciferase makes a cellular process visible.)

The subject of series [3] is PBMCs from HIV-1 well-suppressed patients. Briefly: Latent HIV-1 activation in PBMCs of well-suppressed patients (HIV-1 RNA copies in supernatant, RT-qPCR). Type of series: cell-based, human. Conditions: for HIV-1 RNA copies in the supernatant: patient PBMCs (n = 6), 96 h at 37°C; for HIV-1 RNA copies in the supernatant and TNF-α concentration: PBMCs from seven well-suppressed patients, IgG1-control antibody vs anti-TNF-α. The text has this:
To study the potential of novel TLR7/8 in activating latent HIV-1 reservoir, TLR7/8 dual agonists D018 and C142 and TLR8-specific agonist B-130a were mixed with PBMCs from six well-suppressed patients whose viral load in the plasma was less than 50 copies/ml, and CD4 counts were more than […] for more than 6 years.
TLR7/8 agonists activated PBMCs from seven well-suppressed patients with the addition of anti-TNF-α monoclonal antibody or IgG1-control monoclonal antibody, respectively. D018, B-130a, and the positive control PMA + ION increased the levels of HIV-1 RNA copies in the supernatant and the concentration of TNF-α concomitantly.
To measure the HIV viral load, viral RNA from supernatants was extracted by MagaBio Plus Viral DNA / RNA Purification Kit (BIOER). The reverse-transcription and analysis of RNA copies were performed using the HIV-1 Real-time PCR detection kit (BIOER).
A general note: Quantitative PCR measures a nucleic acid by following its amplification.

Series [4] deals with PBMCs. The series can be described thus: Inflammatory cytokine release from PBMCs (Legend-plex). Type of series: cell-based, human. Conditions: PBMC culture supernatant 48 h after stimulation. Here is the method: Then, a total of 13 human inflammatory cytokines and chemokines (IL-1β, IFN-α2, IFN-γ, TNF-α, CCL2, IL-6, CXCL8, IL-10, IL-12p70, IL-17A, IL-18, IL-23, and IL-33) were measured in the culture supernatant 48 h after stimulation and compared with two healthy donors. Only 8 out of 13 became detectable and largely fell into the proinflammatory cytokines (IL-1β, IL-6, IL-18, IL-23, and TNF-α), Th1-and Th2-type cytokines (IL-10 and IFN-γ), and type I (IFN-α2) and type II (IFN-γ) interferons (Figures 2B–I).
The supernatants from PBMCs culture were collected and stored at-20°C until analysis. For the Multi-cytokines assay, the Legend-plex Human Inflammation Panel 1 kit (Biolegend) was used according to the manual. Thirteen human inflammatory cytokines/chemokines were measured, including IL-1β, IFN-α2, IFN-γ, TNF-α, MCP-1 (CCL2), IL-6, IL-8 (CXCL8), IL-10, IL-12p70, IL-17A, IL-18, IL-23, and IL-33.

Series [5] relates to J-LAT CD4 T cell line (latent HIV-1). The series can be described thus: Direct stimulation of J-LAT cells (GFP-positive cells).
Series [6] deals with HIV-1. On the set-up: method as in SenGupta et al., 2021. Conditions: patients treated with oral GS9620, phase 1b, placebo 4.1 weeks; ref SenGupta et al., 2021; cited from earlier work.
Series [7] concerns J-LAT cells co-cultured with MDDCs. Briefly: J-LAT and MDDC co-culture assay (GFP+ cells and TNF-α). Particulars: 1 μM, 48 h.
Series [8] relates to J-LAT CD4 T cell line (latent HIV-1). The series can be described thus: J-LAT activation by supernatant of agonist-stimulated healthy donor PBMCs (GFP+ cells, FACS). Particulars: 48 h, highest concentration 16 μM.
The test system of series [9] is NF-κB p65 in U1 cells. The series can be described thus: Nuclear phospho-p65-S536 in U1 cells (western blot). Conditions: 1 μM, 30 min, 37°C. On the technique in general: In western blotting, separated proteins are transferred to a membrane and probed.
Experimental: For measuring NF-kB p65 and phosphor-p65 S536, 5 × 10^6 U1 cells were stimulated by 1 μM TLR7/8 agonists D018 (7/8), B-130a (8), GS9620 (7), and DMSO (negative control) for 30 min. Nuclear proteins were extracted by NE-PER Nuclear and Cytoplasmic Extraction Reagents (Pierce) and measured the concentration using BCA protein measure kit (Thermo).
Equal amounts of extracts were loaded on the 10% polyacrylamide gel SDS-PAGE. Then proteins were electro-transferred to nitrocellulose membranes 300 mA for 90 min and incubated with blocking buffer (5% nonfat dry milk and 0.1% Tween 20 in TBS) for 1 h at room temperature. NF-kB p65, phosphorylate p65-s529, and PCNA (as the control of nuclear protein) were separately detected by NF-κB p65 Mouse mAb (CST), Phospho-NF-κB p65 Ser536 Rabbit mAb (CST) and PCNA Rabbit mAb (CST) in blocking buffer overnight at 4°C. After washing 5 times in TBST (1 × TBS + 0.1% Tween), the membranes were incubated with anti-mouse IgG (H + L) HRP (Promega) and anti-rabbit IgG (H + L) HRP (Promega) for 1 h at room temperature. After washing 5 times in TBST, membranes were incubated with ECL detection reagents (Bio-red) and then developed in Bio-red imager.
The test system of series [10] is U1 monocytic cell line (latent HIV-1). Briefly: HIV-1 p24 production in latently infected U1 cells (ELISA). Particulars: 1 μM, TLR8- or MyD88-shRNA U1 vs sham-knockdown.

Consider `CCCCNc1nc(N)nc2ccc(Cl)nc12` [LB06], for which the EC50 (as a rule, the concentration giving half of the maximal effect) in [1] was 2.6 µM; in series [2], 2 µM.

Take `CCCCNc1nc(N)nc2ccc(C(C)c3ccc(CN(C)C)cc3)nc12` (stereo not shown) [C163]: the half-maximal effective concentration (EC50) amounted to 1.65 µM in [1] and 0.178 µM in series [2].

In the case of `COCCNc1nc(N)nc2ccc(Cc3ccc(CN(C)C)cc3)nc12` [199-1], the figures for the 50% effective concentration (EC50) in series [1] and in series [2] were 0.117 µM and 0.00969 µM, respectively.

Regarding `CCCCNc1nc(N)nc2ccc(Cc3ccc(CN(C)C)cc3OC)nc12` [C142], the EC50 in series [1] is 0.02 µM; in series [2], 0.0441 µM. Besides, the “HIV-1 RNA copies in the supernatant” value in [3] is listed as “activated detectable levels of HIV-1 RNA copies”. Also, the “release of inflammatory cytokines” value in series [4] is “either equivalent (IL-6, IL-10, IL-23, and IFN-γ) or higher (IL-1β, IL-18, and TNF-α) than the commercially available R848”.

Regarding `CCCCCc1cc2nc(Cc3ccc(CN(C)C)cc3)ccc2nc1N` [WA175], the EC50 in series [1] is more than 10 µM; in series [2], 0.197 µM.

TNF-α: in series [5], the “GFP-positive J-LAT cells, direct stimulation” value was “could activate GFP expression”.

Turning to `CCCCCc1cc(Cc2ccc(CN3CCCC3)cc2)c(C)nc1N` [B-130b], the results for the 50% effective concentration (EC50) in series [1] and in series [2] were more than 10 µM and 0.0672 µM, respectively.

In the case of `CCCCNc1nc(N)nc2ccc(Cc3ccc(CN4CCCC4)cc3)nc12` [C008], the concentration giving a half-maximal response (EC50) in series [1] was determined as 0.101 µM; in series [2] it was 0.0173 µM.

For `CCCCNc1nc(N)nc2ccc(Cc3ccc(CN4CCOCC4)cc3)nc12` [WA86], the EC50 in series [1] came out at 0.118 µM; in series [2] it was 0.051 µM.

For `CCCCOc1nc(N)c2c(n1)N(Cc1cccc(CN3CCCC3)c1)CC(=O)N2` [GS9620, reference compound], the EC50 in [1] was 0.353 µM; in [2] it was more than 10 µM. Further, in [3], the “HIV-1 RNA copies in the supernatant and TNF-α concentration” value is “low detectable levels”. Besides, in series [6], the viral rebound time is 5.1 weeks. In addition, the “GFP+ J-LAT cells and soluble TNF-α in MDDC co-culture” value in series [7] is “no detectable levels”. The “GFP-positive J-LAT cells, PBMC supernatant” value in [8] is recorded as “did not show any detectable effect”.

IFN-α: the “GFP-positive J-LAT cells, direct stimulation” value in series [5] is recorded as “failed to activate J-LAT cells”.

Take `CCCN(CCC)C(=O)C1=Cc2ccc(-c3ccc(C(=O)N4CCCC4)cc3)cc2N=C(N)C1` [VTX-2337, reference compound]: the figures for the EC50 in series [1] and in [2] were more than 10 µM and 0.151 µM, respectively. In addition, the “release of inflammatory cytokines” value in series [4] was “comparable potency but were invariably higher than TLR7-specific GS9620”.

In turn, `CCCCCc1cc(Cc2ccc(CN(C)C)cc2)c(C)nc1N` [B-130a] gave an EC50 in [1] of more than 10 µM. The compound also came in with an EC50 in [2] of 0.0552 µM. Also, in [3], the “HIV-1 RNA copies in the supernatant and TNF-α concentration” value is “increased”; the “HIV-1 RNA copies in the supernatant” value is listed as “activated detectable levels of HIV-1 RNA copies”. Besides, the “release of inflammatory cytokines” value in [4] is reported as “comparable potency but were invariably higher than TLR7-specific GS9620”. Besides, in series [9], the “nuclear phos-p65-S536” value is recorded as “significant increase”. The “GFP+ J-LAT cells and soluble TNF-α in MDDC co-culture” value in series [7] is “marked increase”. Moreover, in series [10], the “p24 production after TLR8 or MyD88 knockdown” value is given as “essentially abolished the p24 production”.
